Measured values published in PubChem BioAssay AID1845202 (Molecular Pharmacology Branch, DTP, NCI, 2023).

Test system: DMS 114 tumor spheroids, viability % test/control
Test: Anticancer human tumor DMS 114 cell line growth inhibition;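 further: spheroids exposed to compounds for 7 days before read-out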;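 on viability, T/C: luminescence used as a proxy for viable cells; 100% = DMSO vehicle control viability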
Conditions: spheroids with HUVEC and MSC; for viability, T/C: stronger effect = lower value; active means viability on the fitted dose curve at most 10% of control; inactive means the rest
Procedure, shortened: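 Complex spheroids of malignant cells with endothelial cells and mesenchymal stem cells; agents alone or combined, from near clinical Cmax (or 10 microM if unknown) down in half-log steps, 0.25% DMSO final.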

[1] = curve of first compound, second compound 0.003 µM

O=C(c1cc(Cc2n[nH]c(=O)c3ccccc23)ccc1F)N1CCN(C(=O)C2CC2)CC1 + CC[C@@]1(O)C(=O)OCc2c1cc1n(c2=O)Cc2cc3c(CN(C)C)c(O)ccc3nc2-1
1830 nM: IC50 (curve of first compound, second compound 0.00949 µM)
< 94.9 nM: IC50 (curve of first compound, second compound 0.03 µM) | IC50 (curve of first compound, second compound 0.0949 µM) | IC50 (curve of first compound, second compound 0.3 µM)
active: viability, T/C (second compound 0.0949 µM, first compound 30 µM) 9.45% | viability, T/C (second compound 0.3 µM, first compound 0.0949 µM) 8.39% | viability, T/C (second compound 0.3 µM, first compound 0.3 µM) 8.45% | viability, T/C (second compound 0.3 µM, first compound 0.949 µM) 9.03% | viability, T/C (second compound 0.3 µM, first compound 3 µM) 6.88% | viability, T/C (second compound 0.3 µM, first compound 9.49 µM) 5.76% | viability, T/C (second compound 0.3 µM, first compound 30 µM) 6.93%
5040 nM: IC50 [1]
inactive: viability, T/C (second compound 0.003 µM, first compound 0.0949 µM) 104% | viability, T/C (second compound 0.003 µM, first compound 0.3 µM) 98.3% | viability, T/C (second compound 0.003 µM, first compound 0.949 µM) 96.9% | viability, T/C (second compound 0.003 µM, first compound 3 µM) 68.6% | viability, T/C (second compound 0.003 µM, first compound 9.49 µM) 27.3% | viability, T/C (second compound 0.003 µM, first compound 30 µM) 19.7% | viability, T/C (second compound 0.00949 µM, first compound 0.0949 µM) 69.3% | viability, T/C (second compound 0.00949 µM, first compound 0.3 µM) 64.6% | viability, T/C (second compound 0.00949 µM, first compound 0.949 µM) 64.9% | viability, T/C (second compound 0.00949 µM, first compound 3 µM) 39.1% | viability, T/C (second compound 0.00949 µM, first compound 9.49 µM) 23.8% | viability, T/C (second compound 0.00949 µM, first compound 30 µM) 18% | viability, T/C (second compound 0.03 µM, first compound 0.0949 µM) 24% | viability, T/C (second compound 0.03 µM, first compound 0.3 µM) 21.4% | viability, T/C (second compound 0.03 µM, first compound 0.949 µM) 22.6% | viability, T/C (second compound 0.03 µM, first compound 3 µM) 17.8% | viability, T/C (second compound 0.03 µM, first compound 9.49 µM) 13.2% | viability, T/C (second compound 0.03 µM, first compound 30 µM) 12.6% | viability, T/C (second compound 0.0949 µM, first compound 0.0949 µM) 12.9% | viability, T/C (second compound 0.0949 µM, first compound 0.3 µM) 13.9% | viability, T/C (second compound 0.0949 µM, first compound 0.949 µM) 13.4% | viability, T/C (second compound 0.0949 µM, first compound 3 µM) 11.2% | viability, T/C (second compound 0.0949 µM, first compound 9.49 µM) 9.09%

Cn1nnc2c(C(N)=O)ncn2c1=O
> 100000 nM: IC50 (compound alone, run of 10/17/2019)
inactive: viability, T/C (compound 1 µM) 101% [middle of 10 runs] | viability, T/C (compound 3.16 µM) 101% [middle of 9 runs] | viability, T/C (compound 10 µM) 106% [middle of 10 runs] | viability, T/C (compound 31.6 µM) 106% [middle of 10 runs]

[2H]c1nc(C)nc([2H])c1-c1cc(NC[C@@H](C)c2cccc3c(C(=O)NC)ccnc23)ncn1 + COc1cc2c(cc1O)CCNC21CSC2c3c(OC(C)=O)c(C)c4c(c3C(COC1=O)N1C(O)C3Cc5cc(C)c(OC)c(O)c5C(C21)N3C)OCO4
< 31.6 nM: IC50 (curve of first compound, second compound 0.0003 µM) | IC50 (curve of first compound, second compound 0.000949 µM) | IC50 [1]
> 10000 nM: IC50 (curve of first compound, second compound 30 pM) | IC50 (curve of first compound, second compound 94.9 pM)
active: viability, T/C (second compound 0.000949 µM, first compound 0.0316 µM) 2.57% | viability, T/C (second compound 0.000949 µM, first compound 0.1 µM) 4.99% | viability, T/C (second compound 0.000949 µM, first compound 0.316 µM) 2.84% | viability, T/C (second compound 0.000949 µM, first compound 1 µM) 4.1% | viability, T/C (second compound 0.000949 µM, first compound 3.16 µM) 3.19% | viability, T/C (second compound 0.000949 µM, first compound 10 µM) 3.15% | viability, T/C (second compound 0.003 µM, first compound 0.0316 µM) 0.21% | viability, T/C (second compound 0.003 µM, first compound 0.1 µM) 0.22% | viability, T/C (second compound 0.003 µM, first compound 0.316 µM) 0.17% | viability, T/C (second compound 0.003 µM, first compound 1 µM) 0.21% | viability, T/C (second compound 0.003 µM, first compound 3.16 µM) 0.16% | viability, T/C (second compound 0.003 µM, first compound 10 µM) 0.28%
inactive: viability, T/C (second compound 30 pM, first compound 0.0316 µM) 105% | viability, T/C (second compound 30 pM, first compound 0.1 µM) 113% | viability, T/C (second compound 30 pM, first compound 0.316 µM) 106% | viability, T/C (second compound 30 pM, first compound 1 µM) 109% | viability, T/C (second compound 30 pM, first compound 3.16 µM) 107% | viability, T/C (second compound 30 pM, first compound 10 µM) 97.6% | viability, T/C (second compound 94.9 pM, first compound 0.0316 µM) 111% | viability, T/C (second compound 94.9 pM, first compound 0.1 µM) 107% | viability, T/C (second compound 94.9 pM, first compound 0.316 µM) 108% | viability, T/C (second compound 94.9 pM, first compound 1 µM) 111% | viability, T/C (second compound 94.9 pM, first compound 3.16 µM) 98.3% | viability, T/C (second compound 94.9 pM, first compound 10 µM) 98% | viability, T/C (second compound 0.0003 µM, first compound 0.0316 µM) 44.4% | viability, T/C (second compound 0.0003 µM, first compound 0.1 µM) 38.9% | viability, T/C (second compound 0.0003 µM, first compound 0.316 µM) 39% | viability, T/C (second compound 0.0003 µM, first compound 1 µM) 42.1% | viability, T/C (second compound 0.0003 µM, first compound 3.16 µM) 37.4% | viability, T/C (second compound 0.0003 µM, first compound 10 µM) 42.4%
